Measured values from BindingDB's records for doi:10.1016/j.ejmech.2014.01.032 (University of Milan, 2014).

Experiment: Inhibition of acetylcholinesterase in rat brain homogenate after 15 mins by Ellman assay

First: C[N+](C)(CC#CCOC1=NOCC1)CCCCCCCC[N+](C)(C)CCCN1C(=O)c2ccccc2C1=O
Second: C[N+](C)(CC#CCOC1=NOCC1)CCCCCCC[N+](C)(C)CCCN1C(=O)c2ccccc2C1=O
The IC50 of the first is 1.6-fold lower: 19.5 µM for the first, 31.6 µM for the second.

First: C[N+](C)(CC#CCOC1=NOCC1)CCCCCC[N+]1(C)CCC(N2C(=O)c3cccc4cccc(c34)C2=O)CC1 (stereo unspecified)
Second: C[N+](C)(CC#CCOC1=NOCC1)CCCCCC[N+](C)(C)CCCN1C(=O)c2cccc3cccc(c23)C1=O
The IC50 of the first is 2.2-fold higher: 22.9 µM for the first, 10.2 µM for the second.

Compared with `C[N+](C)(CC#CCOC1=NOCC1)CCCCCCCC[N+](C)(C)CCCN1C(=O)c2cccc3cccc(c23)C1=O`, `CC(C)(CN1C(=O)c2cccc3cccc(c23)C1=O)C[N+](C)(C)CCCCCC[N+](C)(C)CCCN1C(=O)c2ccccc2C1=O` [Naphmethonium] is 4.2-fold higher in IC50: 10 µM for the first, 41.7 µM for the second.
